Reference: patent publication US8349854B2, “Salts of 4-aniline quinazoline derivative” (priority 2007, dated 2013)
Where two headings read alike, the source gives them in different places.

Columns and labels:
[1] = SD rats, gavage 4 weeks, 20, 50, 100, 500 and 800 mg/(kg·day)
Protocol: Five test groups with the dose of 20, 50, 100, 500 and 800 mg/(kg·day) respectively and a solvent control group were set.

[2] = target: EGFR tyrosine kinases (Homo sapiens, UniProt P00533); assay: Inhibitory effect on EGFR tyrosine kinases (ELISA, Poly(Glu,Tyr) 4:1); assay type: biochemical; conditions: result in words
Protocol: The plate coated with EGFR tyrosine kinases reaction substrate Poly(Glu, Tyr) 4:1 was washed three times with T-PBS and dried in oven at the temperature of 37° C. Every well was added with the ATP solution diluted with reaction buffer, the compound to be tested with grading concentrations and the tyrosine kinases to be tested in sequence to initiate the reaction. The plate was incubated in a shaker for 1 hour at the temperature of 37° C., and then was washed three times with T-PBS (the phosphate buffer containing 0.05% of Tween with a pH of 7.4). Antibody PY99 was added and the reaction was kept on at 37° C. for 1 hour. The plate was washed three times with T-PBS, HRP labeled goat anti mouse IgG was then added and incubated at 37° C. for 1 hour. The colorimetric solution of OPD (o-phenylenediamine) was added and the mixture was reacted in dark at room temperature for 1-10 min. The reaction was terminated by the addition of 2M of H2SO4. The OD value at wavelength of 492 nm was measured using the VersaMax™ microplate reader (MDC company, USA). The inhibitory effect of the samples on EGFR tyrosine kinases was determined by the following formula: Inhibition %=[1−(OD Value of the compound to be tested −OD Value of the control without enzyme)/(OD Value of the negative control−OD Value of the control without enzyme)]×100%.

[3] = tested on: human mammary cancer cells BT-474; conditions: from PCT/CN2006/002786, result in words; cited from earlier work
[4] = tested on: human epidermoid squamous cancer cells A431; conditions: from PCT/CN2006/002786, result in words; cited from earlier work
[5] = target: Erb-B2 (Homo sapiens, UniProt P04626); conditions: in vitro; from PCT/CN2006/002786, result in words; cited from earlier work
[6] = tested on: human epidermoid squamous cancer cells A431; conditions: from PCT/CN2006/002786, result in words; cited from earlier work; remark: listed apart in the source
[7] = Solubility test in water and in methanol at room temperature; assay type: physicochemical; conditions: thermodynamic from solid
Protocol: According to the conventional method for determining the solubility, at the room temperature, a suitable amount of the compound to be tested was placed in 15 mL of water. Then the compound was dissolved by sufficient stir. The solution is placed at room temperature for 3 hours. Then 10 ml of the clear saturated supernatant was transferred into the weighing bottle with the pipette. The solvent was evaporated by heating, and the residue was dried and weighed to obtain the mass of the residue, which was the mass of the solute. After calculation, the solubility of the compound of formula (I) and the salts thereof in water can be obtained. The solubility of the compound to be tested in methanol was determined along the same lines.

[8] = Drug absorption in SD rat, intragastric administration (ig); assay type: in vivo
Protocol: (§1) The blood samples were collected 0.5, 1.0, 1.5, 2.0, 3.0, 5.0, 7.0, 9.0, 12 and 24 hours after administration, which were then centrifugated respectively to obtain the plasma. The concentration of the drug in the plasma was determined by means of liquid chromatography/tandem mass spectrometer, and the concentration-time curve was obtained.

[9] = Drug absorption in SD rat, intravenous injection (iv); assay type: in vivo; conditions: 5 mg/kg
Protocol: as §1, with “collected 5 min, 15 min,” for “collected”, “0.5,” for “0.5, 1.0,”, “3.0, 4.0,” for “3.0,”, “7.0” for “7.0, 9.0, 12 and 24”

[10] = tested on: human epidermatoid squamous cancer cell A431; assay: Inhibition of proliferation of tumor cell lines (MTT), A431; assay type: cell-based; conditions: 72 h
Protocol: (§2) A DMSO solvent control well and a blank well were set in the plate. […] The incubation was continued for 4 h, and 50 μL of triple-expansion solution (10% SDS-5% of isobutyl alcohol-0.01 mol/L of HCl) was added. The plate was placed in the incubator overnight. The OD value was measured by the microplate reader at wavelength of 570 nm.

[11] = tested on: human breast cancer cell BT-474; assay: Inhibition of proliferation of tumor cell lines (MTT), BT-474; assay type: cell-based; conditions: BT-474, MTT, 72 h
Protocol: as §2

[12] = tested on: human ovarian cancer SKOV-3; assay: Anti-tumor effect on human ovarian cancer SKOV-3 transplanted to the BALB/cA nude rat; assay type: in vivo
Protocol: A tumor SKOV-3 in vigorous growth period was selected and incised into several bits of an even size of about 1.5 mm^3, which was inoculated subcutaneously to the right armpit of the BALB/cA nude rats using trocar under sterile condition. The diameters of the transplanted tumors were measured with a vernier caliper. The animals were grouped randomly when the tumors reached a size of 80-100 mm^3. The tested animals of the group receiving the compounds to be tested were administrated with the compounds by gavage through mouth once daily for 3 weeks continuously. The positive control drug MMC (Mitomycin) was administered by intravenous injection once on the first day with a dose of 5 mg/kg. The negative control group was administered with 0.5% CMC-Na (Carboxymethyl Cellulose Sodium) with a dose of 0.2 mL/per rat. The major axis (a) and the minor axis (b) of the tumors were measured twice every week and the rats were weighed at the same time. According to the formula V=ab^2/2, the tumor volume (mm^3) could be calculated, based on which the relative tumor volume (RTV) was determined (Formula: RTV=Vt/V0, wherein V0 represents the tumor volume measured at the grouping time (i.e. d0), and Vt represents the tumor volume measured each time). The relative tumor proliferation rate T/C (%) was chosen here to evaluate the anti-tumor activity, which can be calculated according to the following formula: T/C(%)=(TRTV/CRTV)×100%
TRTV: RTV of the group receiving the compounds to be tested; CRTV: RTV of negative control group

[13] = tested on: human epidermatoid squamous cancer A431; assay: Anti-tumor effect on human epidermatoid squamous cancer A431 transplanted to the BALB/cA nude rat; assay type: in vivo; conditions: for Weight of animals (without tumor) / inhibition for tumor % / Weight of tumors x ± SD: 13 days; for Weight of tumors x ± SD: 23 days after inoculation
Protocol: A well-developed solid tumor A431 was selected and incised into several bits of an even size of 2-3 mm, with one bit being inoculated subcutaneously to the right armpit of each of the BALB/cA nude rats using trocar. 7 days after inoculation, the rats were grouped randomly and were administrated with the compounds by gavage through mouth for 13 days continuously. The major axis (a) and the minor axis (b) of the tumors were measured with a vernier caliper every 4 days. According to the formula V=ab^2/2, the tumor volume (mm^3) could be calculated. The tested animals were neck-off killed 23 days after the inoculation, and anatomized to obtain the tumors. The tumors were weighed and the inhibitory effect of the compounds to be tested was figured out.

[14] = 50 mg/kg ig once daily for 3 weeks
[15] = 100 mg/kg ig once daily for 3 weeks
[16] = 200 mg/kg ig once daily for 3 weeks
[17] = SD rat, ig, dosage 21.68 (formula (I)), 23.42 (hydrochloride), 30 mg/kg (p-toluenesulfonate)
[18] = SD rat, revised by dosage, calculated by AUC0-t
[19] = 5 mg/kg iv once on the first day, after 3 weeks

Erb-B2, sequence (P04626 23-1255, species assumed): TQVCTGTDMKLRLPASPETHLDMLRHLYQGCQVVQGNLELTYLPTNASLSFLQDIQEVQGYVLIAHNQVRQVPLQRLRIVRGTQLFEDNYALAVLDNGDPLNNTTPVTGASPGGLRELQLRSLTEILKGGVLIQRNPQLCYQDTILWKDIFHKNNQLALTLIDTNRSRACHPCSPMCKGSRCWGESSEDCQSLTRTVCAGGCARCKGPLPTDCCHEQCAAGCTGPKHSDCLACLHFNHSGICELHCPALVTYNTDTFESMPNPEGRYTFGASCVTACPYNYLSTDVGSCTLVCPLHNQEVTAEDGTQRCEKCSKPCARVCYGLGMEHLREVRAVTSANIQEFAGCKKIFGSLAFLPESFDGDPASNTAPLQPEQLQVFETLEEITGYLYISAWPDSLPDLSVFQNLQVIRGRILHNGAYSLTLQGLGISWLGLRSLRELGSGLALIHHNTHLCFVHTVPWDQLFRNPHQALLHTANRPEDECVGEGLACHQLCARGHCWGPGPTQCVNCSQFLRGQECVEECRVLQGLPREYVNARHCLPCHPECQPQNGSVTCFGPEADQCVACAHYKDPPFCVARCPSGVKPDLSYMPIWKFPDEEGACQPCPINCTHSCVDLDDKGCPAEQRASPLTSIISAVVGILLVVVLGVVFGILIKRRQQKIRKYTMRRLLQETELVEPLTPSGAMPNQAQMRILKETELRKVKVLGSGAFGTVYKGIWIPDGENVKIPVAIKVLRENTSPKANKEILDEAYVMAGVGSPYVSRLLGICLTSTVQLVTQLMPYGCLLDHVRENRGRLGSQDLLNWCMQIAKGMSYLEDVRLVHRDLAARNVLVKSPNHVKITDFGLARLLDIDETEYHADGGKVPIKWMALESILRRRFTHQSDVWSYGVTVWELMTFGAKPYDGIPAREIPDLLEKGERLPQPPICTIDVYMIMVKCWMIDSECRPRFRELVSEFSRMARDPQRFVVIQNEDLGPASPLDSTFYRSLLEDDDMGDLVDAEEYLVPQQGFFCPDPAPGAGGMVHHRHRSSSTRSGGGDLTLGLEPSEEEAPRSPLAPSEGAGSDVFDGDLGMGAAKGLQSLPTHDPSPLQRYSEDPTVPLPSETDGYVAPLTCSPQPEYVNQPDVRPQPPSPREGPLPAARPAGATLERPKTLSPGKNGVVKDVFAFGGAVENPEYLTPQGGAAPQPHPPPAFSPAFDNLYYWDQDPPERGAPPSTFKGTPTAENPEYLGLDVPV

## C=CC(=O)Nc1ccc2ncnc(Nc3ccc(OCc4cccc(F)c4)c(Cl)c3)c2c1.CS(=O)(=O)O [Methanesulfonate, Methanesulfonate of N-{4-[3-chloro-4-(3-fluoro-benzyloxy)phenylamino]-quinazolin-6-yl}-acrylamide]
[1]
  food intake: normal food intake
  physical signs, appearance, behaviors, activities or shape of dejecta: no abnormality
[2]
  inhibitory activity of EGFR tyrosine kinases: excellent inhibitory activity

## C=CC(=O)Nc1ccc2ncnc(Nc3ccc(OCc4cccc(F)c4)c(Cl)c3)c2c1 [Compound of formula (I), N-{4-[3-chloro-4-(3-fluoro-benzyloxy)phenylamino]quinazolin-6-yl}-acrylamide]
[3]
  inhibitory activity of human mammary cancer cells BT-474: relatively good inhibitory activity
[4]
  inhibitory activity of human epidermoid squamous cancer cells A431: relatively good inhibitory activity
[5]
  inhibitory activity against Erb-B2: excellent inhibitory activity
[6]
  anti-tumor effect on A431 transplanted to a nude rat: conspicuous anti-tumor effect
[7]; organic solvent or mixture, methanol, read-out: Solubility in methanol(/mL)
  solubility at 3 h: < 1000 µg/mL
[7]; water, read-out: Solubility in water(/mL)
  solubility at 3 h: < 0.01 µg/mL
[8]; male, SD, rat, plasma, po, 30 mg/kg
  half-life: 1.81 h
[8]; male, SD, rat, plasma, po, 30 mg/kg, read-out: AUC0-t
  AUC0-t: 106 ng·h/mL
[8]; male, SD, rat, plasma, po, 30 mg/kg, read-out: Cmax
  Cmax: 32 ng/mL
[8]; male, SD, rat, plasma, po, 30 mg/kg, read-out: Tmax
  Tmax: 0.75 h
[8]; male, plasma, po, 21.68 mg/kg, SD rat, revised by dosage, calculated by AUC0-t, read-out: absolute bioavailability by ig
  bioavailability: 0.95%

## Tartrate of N-{4-[3-chloro-4-(3-fluoro-benzyloxy)phenylamino]-quinazolin-6-yl}-acrylamide
[1]
  food intake: normal food intake
  physical signs, appearance, behaviors, activities or shape of dejecta: no abnormality
  weight and weight growth of the rats: basically similar to the control group with no statistical difference
[2]
  inhibitory activity of EGFR tyrosine kinases: excellent inhibitory activity

## C=CC(=O)Nc1ccc2ncnc(Nc3ccc(OCc4cccc(F)c4)c(Cl)c3)c2c1.O=C(O)C(=O)O [Oxalate, Oxalate of N-{4-[3-chloro-4-(3-fluoro-benzyloxy)phenylamino]-quinazolin-6-yl}-acrylamide]
[1]
  food intake: normal food intake
  physical signs, appearance, behaviors, activities or shape of dejecta: no abnormality
[2]
  inhibitory activity of EGFR tyrosine kinases: excellent inhibitory activity

## C=CC(=O)Nc1ccc2ncnc(Nc3ccc(OCc4cccc(F)c4)c(Cl)c3)c2c1.Cc1ccc(S(=O)(=O)O)cc1 [p-Toluenesulfonate, p-Toluenesulfonate of N-{4-[3-chloro-4-(3-fluoro-benzyloxy)phenylamino]quinazolin-6-yl}-acrylamide]
[9]
  AUC0-t: 1860 ng·h/mL
  Cmax: 1745 ng/mL
  T1/2: 1.55 h
  Tmax: 4.98 min
[10]
  IC50: 730 nM
[11]
  IC50: 420 nM
[1]
  food intake: normal food intake
  physical signs, appearance, behaviors, activities or shape of dejecta: no abnormality
[12]; [14]
  RTV: 5.1 ± 1.7
  T/C: 53.0%
  Volume of tumor V21: 421 ± 89 mm^3
[12]; [15]
  RTV: 4.3 ± 1.3
  T/C: 45.0%
  Volume of tumor V21: 345 ± 88 mm^3
[12]; [16]
  RTV: 3.5 ± 0.8
  T/C: 36.9%
  Volume of tumor V21: 303 ± 72 mm^3
[12]; result in words
  tumor inhibitory effect (SKOV-3 xenograft): conspicuous tumor inhibitory effect
[2]
  inhibitory activity of EGFR tyrosine kinases: excellent inhibitory activity
[8]; [17]
  AUC0-t: 1235 ng·h/mL
  Cmax: 333 ng/mL
  T1/2: 1.22 h
  Tmax: 3.38 h
[8]; [18]
  absolute bioavailability by ig: 11.07%
[13]; 25 mg/kg ig
  Weight of animals (without tumor): 21.58 ± 2.18 g
  inhibition for tumor %: 29.99%
  Weight of tumors x ± SD: 0.79 ± 0.20 g
[13]; 50 mg/kg ig
  Weight of animals (without tumor): 22.05 ± 1.59 g
  inhibition for tumor %: 37.15%
  Weight of tumors x ± SD: 0.71 ± 0.20 g
[13]; 100 mg/kg ig
  Weight of animals (without tumor): 22.35 ± 1.92 g
  inhibition for tumor %: 48.65%
  Weight of tumors x ± SD: 0.58 ± 0.21 g
[13]; result in words
  inhibitory effect on the tumors (A431 xenograft): significant inhibitory effect

## CO[C@@]12[C@H](COC(N)=O)C3=C(C(=O)C(C)=C(N)C3=O)N1C[C@@H]1N[C@@H]12 [MMC, Mitomycin, reference compound]
[12]; [19]
  RTV: 3.1 ± 0.5
  T/C: 32.0%
  Volume of tumor V21: 258 ± 77 mm^3

## C=CC(=O)Nc1ccc2ncnc(Nc3ccc(OCc4cccc(F)c4)c(Cl)c3)c2c1.Cl [Hydrochloride, The hydrochloride of N-{4-[3-chloro-4-(3-fluoro-benzyloxy)phenyl-amino]-quinazolin-6-yl}-acrylamide]
[10]; listed as hydrochloride
  IC50: 840 nM
[11]; listed as hydrochloride
  IC50: 460 nM
[1]
  food intake: normal food intake
  physical signs, appearance, behaviors, activities or shape of dejecta: no abnormality
[2]
  inhibitory activity of EGFR tyrosine kinases: excellent inhibitory activity
[8]; [17]
  AUC0-t: 1038 ng·h/mL
  Cmax: 289 ng/mL
  T1/2: 1.27 h
  Tmax: 2.25 h
[8]; [18]
  absolute bioavailability by ig: 9.30%
